The values that follow come from patent US12005078B2, “Genetically engineered drug resistant T cells and methods of using the same” (The UAB Research Foundation, priority 2015, dated 2024).

In one assay the test system is X12T glioma. In words: Survival of TMZ-resistant glioma-bearing mice. The assay is classed as in vivo. As to conditions: cells given as single administration per week. The text has this: (§1) The expression of NKG2DL on tumor cells increases the overall potency of γδ T cell therapy. FIGS. 5A and 5B show the survival of X12P and X12T (TMZ resistant) glioma-bearing mice, respectively, in response to various treatments. […] The DRI treatment regimen increased median survival from 57 to 75 days over the TMZ treatment regimen. […] The DRI treatment regimen increased median survival from 22 to 27 days over the TMZ treatment regimen. The effect of the DRI treatment regimen could be increased by intensification of the administration of the γδ T cells and NK cells from a single administration per week (as shown in FIG. 2) to two administrations per week (data not shown).

Another assay deals with X12P glioma. In words: Survival of glioma-bearing mice. The assay is classed as in vivo.
From the text: as §1

Regarding `Cn1nnc2c(C(N)=O)ncn2c1=O` [TMZ, temozolomide], the values for the median survival in the assay with X12T glioma and with X12P glioma were 22 days and 57 days, respectively.
